Measurements published in PubChem BioAssay AID328 (DTP/NCI, 2004).
Several values for one entry are separate records, joined by “and”; a condition that tells them apart may be missing. Identical values can stand only once. Inconclusive results and toxic doses are left out. Rule for the calls: active = survival T/C of 150% or more; inactive = T/C below 125% in these data.

System: BDF1 mice, P388 leukemia ip, median survival T/C
Test: NCI In Vivo Anticancer Drug Screen. Data for tumor model P388 Leukemia (intraperitoneal) in B6D2F1 (BDF1) mice
Details: endpoint: median survival time, higher = longer survival
Procedure, shortened: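 Mice carrying the transplantable tumour receive compound or vehicle. Survival is followed in each arm, and the treated measure is divided by the vehicle measure.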

[1] = dose: 50.0 mg/kg/injection, schedule: Q01DX009 (ip), vehicle: saline with Tween-80
[2] = dose: 100.0 mg/kg/injection, schedule: Q01DX009 (ip), vehicle: saline with Tween-80
[3] = dose: 200.0 mg/kg/injection, schedule: Q01DX009 (ip), vehicle: saline with Tween-80
[4] = dose: 100.0 mg/kg/injection, schedule: Q04DX003 (ip), vehicle: Klucel (hydroxypropylcellulose) (HPC)
[5] = dose: 400.0 mg/kg/injection, schedule: Q04DX003 (ip), vehicle: Klucel (hydroxypropylcellulose) (HPC)
[6] = dose: 100.0 mg/kg/injection, schedule: Q04DX003 (ip), vehicle: saline with Tween-80
[7] = dose: 200.0 mg/kg/injection, schedule: Q04DX003 (ip), vehicle: saline with Tween-80

Measured: T/C

O=C(/C=C/c1ccc(OCc2ccccc2)cc1)c1ccc(Cl)c(Cl)c1Cl
inactive: [1] 98 % of control | [2] 90 % of control | [3] 89 % of control

O=C(O)C1C2C=CC(C3C=CC32)C1C(=O)O (centres undefined)
inactive: dose: 25.0 mg/kg/injection, schedule: Q01DX009 (ip), vehicle: saline 97 % of control | dose: 50.0 mg/kg/injection, schedule: Q01DX009 (ip), vehicle: saline 93 % of control | dose: 100.0 mg/kg/injection, schedule: Q01DX009 (ip), vehicle: saline 97 % of control | dose: 200.0 mg/kg/injection, schedule: Q01DX009 (ip), vehicle: saline 96 % of control | dose: 400.0 mg/kg/injection, schedule: Q01DX009 (ip), vehicle: saline 102 % of control

O=[N+]([O-])c1ccc(/C=C/C=C/c2ccc(Cl)cc2Cl)cc1
inactive: dose: 50.0 mg/kg/injection, schedule: Q01DX009 (ip), vehicle: Klucel (hydroxypropylcellulose) (HPC) 104 % of control | dose: 100.0 mg/kg/injection, schedule: Q01DX009 (ip), vehicle: Klucel (hydroxypropylcellulose) (HPC) 113 % of control | [4] 104 % of control | dose: 200.0 mg/kg/injection, schedule: Q01DX009 (ip), vehicle: Klucel (hydroxypropylcellulose) (HPC) 90 % of control | dose: 200.0 mg/kg/injection, schedule: Q04DX003 (ip), vehicle: Klucel (hydroxypropylcellulose) (HPC) 95 % of control | [5] 91 % of control

CC1(c2ccco2)C(=O)NC(=O)N1C(=O)CCl (centres undefined)
inactive: [1] 100 % of control | [2] 100 % of control | [6] 96 % of control | [7] 96 % of control

O=C1NC(c2cccc3c2OCO3)N=C2Oc3ccccc3C=C12 (centres undefined)
inactive: [1] 98 % of control | [2] 93 % of control | [3] 93 % of control

CCCCC(CC)COC(=O)CC(CC(=O)OCC(CC)CCCC)C(=O)OCC(CC)CCCC (centres undefined)
inactive: [1] 92 % of control | [2] 92 % of control | [3] 92 % of control

CN1CCC(CN2c3ccccc3Sc3ccccc32)CC1
inactive: dose: 1.56 mg/kg/injection, schedule: Q01DX009 (ip), vehicle: Klucel (hydroxypropylcellulose) (HPC) 105 % of control | dose: 3.12 mg/kg/injection, schedule: Q01DX009 (ip), vehicle: Klucel (hydroxypropylcellulose) (HPC) 86 % of control and 105 % of control | dose: 6.25 mg/kg/injection, schedule: Q01DX009 (ip), vehicle: Klucel (hydroxypropylcellulose) (HPC) 95 % of control | dose: 8.75 mg/kg/injection, schedule: Q04DX003 (ip), vehicle: Klucel (hydroxypropylcellulose) (HPC) 95 % of control | dose: 17.5 mg/kg/injection, schedule: Q04DX003 (ip), vehicle: Klucel (hydroxypropylcellulose) (HPC) 95 % of control | dose: 35.0 mg/kg/injection, schedule: Q04DX003 (ip), vehicle: Klucel (hydroxypropylcellulose) (HPC) 109 % of control | dose: 50.0 mg/kg/injection, schedule: Q04DX003 (ip), vehicle: Klucel (hydroxypropylcellulose) (HPC) 110 % of control | dose: 80.0 mg/kg/injection, schedule: Q04DX003 (ip), vehicle: Klucel (hydroxypropylcellulose) (HPC) 120 % of control | [6] 118 % of control | [7] 86 % of control

CC(C)(C)OC(=O)c1cccc(C(=O)OC(C)(C)C)c1
inactive: dose: 100.0 mg/kg/injection, schedule: Q04DX002 (ip), vehicle: saline with Tween-80 103 % of control | dose: 200.0 mg/kg/injection, schedule: Q04DX002 (ip), vehicle: saline with Tween-80 95 % of control | dose: 400.0 mg/kg/injection, schedule: Q04DX002 (ip), vehicle: saline with Tween-80 94 % of control

COc1ccc2cc1Oc1ccc(cc1)CC1=NCCc3cc(OC)c(OC)c(c31)Oc1cc3c(cc1OC)CCN(C)C3C2 (centres undefined)
inactive: dose: 67.0 mg/kg/injection, schedule: Q01DX010 (ip), vehicle: carboxymethylcellulose (CMC) 86 % of control | dose: 100.0 mg/kg/injection, schedule: Q01DX010 (ip), vehicle: carboxymethylcellulose (CMC) 86 % of control

CC(C)CN1CC(=O)N2CCCN2C(=O)C1
inactive: dose: 50.0 mg/kg/injection, schedule: Q01DX005 (ip), vehicle: saline 94 % of control | dose: 100.0 mg/kg/injection, schedule: Q01DX005 (ip), vehicle: saline 108 % of control | dose: 200.0 mg/kg/injection, schedule: Q01DX005 (ip), vehicle: saline 103 % of control

O=[N+]([O-])c1ccc2c(c1)Cc1cc(Br)ccc1-2
inactive: [4] 100 % of control | [5] 100 % of control
